Values joined by “and” are separate entries in the source; they are usually repeats but may differ in a detail not shown here. Equal values may be shown once.
Tests used:
mouse Lewis lung cancer = test: In vivo antitumor efficacy, mouse Lewis lung cancer model (subcutaneously transplanted), Example 1
Description: Test controls. For the negative control, two groups were set up: the solvent only control group and normal saline control group. […] In the normal saline group, each mouse was administered with 0.5 ml of normal saline, once per day and for 7 or 10 consecutive days. For the positive control group, the anticancer compound, cyclophosphamide (CTX) was administered intraperitoneally at 30 mg/kg, once per day and for 7 or 10 consecutive days.
In the mouse Lewis lung cancer model, 200 mg of DBTS was dissolved in 5 mL castor oil (in polyoxyethlated version). […] The intravenous injection speed was about 0.5 mL/0.5 min.
The dosages and administration of test compounds are within the knowledge of those commonly skilled in pharmacology. For example, the test compounds may be administered by intravenous injection with a test compound solution twice per day and for 7 consecutive days. Alternatively, the test compounds may be administered by intravenous injection with a test compound solution once per day and for 10 consecutive days.
0.2 mL of the tumor cell suspension (between 4 and 8 million tumor cells) was then transplanted back into an experimental mouse by subcutaneous injection. […] Each removed solid tumor was weighted, and the tumor inhibition rate in the DBTS-treated groups and in the CTX-treated group was calculated according to the formula: Tumor inhibition rate %=(average weight of tumor in the negative control group−average weight of tumor in the compound treated group)/average weight of tumor in the negative control group×100 (2)
For the mouse Lewis lung cancer model, the Lewis lung cancer cells were subcutaneously transplanted at approximately 5 million cells per mouse. After 24 hours of the transplantation, each mouse in the test group was administered intravenously with dibenzyl trisulfide at 50, 25, or 12.5 mg/kg per day and for 10 consecutive days. For the positive control group, each mouse was administered with CTX at […] intraperitoneally per day and for 10 consecutive days. For the negative control group, each mouse was administered intravenously either with normal saline, or with the solvent for dibenzyl trisulfide at the same concentration as that in the test group per day and for consecutive 10 days. For each group, 10 mice were used.

[1] = tested on: human cancer cell lines (H460, MV522, MCF7, A549, PC3, A431, HT1080, MDA-231, HT29, HCC2998, OVCAR4, A2780); test: RT-CES system, panel of human cancer cell lines treated with dibenzyl trisulfide; type: cell-based; conditions: 1.5625-100 μM; FIGS. 1-5, 6A, 7-12
Excerpt: The RT-CES system comprises three components, an electronic sensor analyzer, a device station and 16× or 96× microtiter plate devices. Microelectrode sensor array was fabricated on glass slides with lithographical microfabrication methods and the electrode-containing slides are assembled to plastic trays to form electrode-containing wells. Each 16× (or 96×) microtiter plate device used in RT-CES system comprises up to 16 (or 96) such electrode-containing wells. The device station receives the 16× or 96× microtiter plate devices and is capable of electronically switching any one of the wells to the sensor analyzer for impedance measurement. […] Under the RT-CES software control, the sensor analyzer can automatically select wells to be measured and continuously conduct impedance measurements. The impedance data from the analyzer is transferred to a computer, analyzed and processed by the integrated software.
To quantify cell status based on the measured cell-electrode impedance, a parameter termed Cell Index is derived, according to
[formula] where Rb(f) and Rcell(f) are the frequency dependent electrode resistances (a component of impedance) without cells or with cell present, respectively. N is the number of the frequency points at which the impedance is measured. Thus, Cell Index is a quantitative measure of the status of the cells in an electrode-containing well. […]

## c1ccc(CSSSCc2ccccc2)cc1 [DBTS, Dibenzyl trisulfide]
Mouse Lewis lung cancer; 12.5 mg/kg/d iv x10 qd, vs 5% solvent control
  Inhibition rate (%): 37.38% and 37.28%
Mouse Lewis lung cancer; 12.5 mg/kg/d iv x10 qd, vs normal saline control
  Inhibition rate (%): 45.21%
Mouse Lewis lung cancer; 25 mg/kg/d iv x10 qd, vs 5% solvent control
  Inhibition rate (%): 44.30%
Mouse Lewis lung cancer; 25 mg/kg/d iv x10 qd, vs normal saline control
  Inhibition rate (%): 51.34%
Mouse Lewis lung cancer; 50 mg/kg/d iv x10 qd, vs 5% solvent control
  Inhibition rate (%): 62.28%
Mouse Lewis lung cancer; 50 mg/kg/d iv x10 qd, vs normal saline control
  Inhibition rate (%): 67.05% and 65%
[1]
  Effect on proliferation of cancer cell lines (time-dependent cell index): exhibited inhibitory effect on the proliferation of a number of cancer cell lines

From US8334316B2, “Substituted organosulfur compounds and methods of using thereof” (ACEA Biosciences, Inc., priority 2004, dated 2012)
